Results: patent US12171753B2, “Crystalline forms of ALDH2 modulators” (SOPHROSYNE PHARMACEUTICALS LIMITED, priority 2021, dated 2024)

Tests used:
[1] = Polymorphic screen: suspending 50 mg of compound in solvent, suspension outcome; assay type: physicochemical; details: left overnight
Description: The polymorphic screening of the compound of Formula IV-I was performed by suspending 50 mg of the compound of Formula IV-I in each of the solvents as described in Table 12 at a volume of 1.5 mL for all but water (1 mL) in a separate vial. The vials were sealed and the suspensions were left overnight. In the following day, the vials with the compound of Formula IV-I dissolved were opened and the solutions were left to evaporate at room temperature. The solid materials were collected after the complete evaporation of the solvent. In the vials where the compound of Formula IV-I was not fully dissolved, the mixtures were left to slurrying for another 96 h. The slurries were filtered and the obtained solids were analyzed.

[2] = system: subject suffering from alcohol use disorder; test: Pharmaceutical composition administered to a subject suffering from alcohol use disorder; assay type: in vivo
Description: (§1) [drawing 31] and trifluorotriiodobenzene is administered to a subject suffering from alcohol use disorder. […] The subject is also found to have less cravings on the Visual Analogue Scale of Craving, which has 4 questions to assess domains of alcohol craving: the intention to drink, loss of control, relief craving, and urge intensity with a 0-20 point visual analogue scale for each item, with 0 indicating no craving and 20 indicating severe craving.
as §1, with “32]” for “31] and trifluorotriiodobenzene”

For `C[S+]([O-])C(=O)N1CCC(O)CC1` (centres unmarked) [Formula IV-I, 1-S-Methyl 1-S-oxo 4-hydroxy-1-piperidinecarbothioate], the Suspension outcome ([1]; 50 mg in 1 mL H2O) was “Dissolved”, the Suspension outcome ([1]; 50 mg in 1.5 mL 1-propanol) was “Slurry” and the Suspension outcome ([1]; 50 mg in 1.5 mL 2-propanol) was “Slurry”. For the same compound, the Suspension outcome ([1]; 50 mg in 1.5 mL Acetone) was “Slurry”, the Suspension outcome ([1]; 50 mg in 1.5 mL Acetonitrile) was “Slurry” and the Suspension outcome ([1]; 50 mg in 1.5 mL Chloroform) was “Dissolved”. For the same compound, the Suspension outcome ([1]; 50 mg in 1.5 mL Cyclohexane) was “Slurry”, the Suspension outcome ([1]; 50 mg in 1.5 mL Dichloromethane) was “Dissolved” and the Suspension outcome ([1]; 50 mg in 1.5 mL EtOAc) was “Slurry”. The Suspension outcome ([1]; 50 mg in 1.5 mL EtOH) was “Dissolved”, the Suspension outcome ([1]; 50 mg in 1.5 mL Ethyl ether) was “Slurry” and the Suspension outcome ([1]; 50 mg in 1.5 mL Isopropyl acetate) was “Slurry”. The Suspension outcome ([1]; 50 mg in 1.5 mL MeOH) was “Dissolved”, the Suspension outcome ([1]; 50 mg in 1.5 mL Methyl acetate) was “Slurry” and the Suspension outcome ([1]; 50 mg in 1.5 mL Nitromethane) was “Dissolved”. The Suspension outcome ([1]; 50 mg in 1.5 mL Octane) was “Slurry”, the Suspension outcome ([1]; 50 mg in 1.5 mL THF) was “Slurry” and the Suspension outcome ([1]; 50 mg in 1.5 mL Toluene) was “Slurry”. For the same compound, the Suspension outcome ([1]; 50 mg in 1.5 mL n-hexane) was “Slurry” and the Suspension outcome ([1]; 50 mg in 1.5 mL n-pentane) was “Slurry”.

For `C[S+]([O-])C(=O)N1CCC(O)CC1` (centres unmarked) [drawing 31], the “Cravings on the Visual Analogue Scale of Craving” value ([2]; 4 questions, 0-20 point scale per item) was “less cravings”, the “Craving scale after 2 weeks of treatment” value ([2]; after 2 weeks of being treated) was “reduction in the craving scale” and the “Alcohol consumed over a 90 day period” value ([2]; compared to a 90 day period prior to treatment) was “consume less alcohol”. For the same compound, the “Percentage of no heavy drinking days” value ([2]; during the period of treatment (e.g., 1 to 13 weeks)) was “increase in the percentage of no heavy drinking days”, the “Number of drinks consumed in the natural environment” value ([2]; first 13 days of medication period, timeline follow-back interview) was “reduction in the number of drinks” and the “Alcohol drinking of the treated subject” value ([2]; subject with alcohol use disorder) was “drink less or no alcohol”.
